Target: T1, vanilloid receptor (Rattus norvegicus, UniProt O35433)
T1 construct: DRG nerve cells from the primary culture of 2 days were equilibrated; endogenous in cells; host or cells: primary culture of dorsal root ganglion neurons from neonatal SD rats
Test: 45Ca influx test in cultured neonatal rat DRG neurons, inhibition of capsaicin response
Type: cell-based
Conditions: neonatal rat DRG neurons, capsaicin 0.5 μM, 45Ca influx; read-out: Antagonist Calcium Uptake Test (IC50)
Method in brief: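 45Ca influx measured by scintillation counting of SDS-eluted neurons after 10 min at room temperature with test compound, 0.5 μM capsaicin (final) and 10 μCi/ml 45Ca in Ca/Mg-free HEPES-HBSS pH 7.4. Cells: primary DRG neurons from newborn SD rats, cultured 2 days with NGF and Ara-C.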

T1 sequence (O35433 whole entry): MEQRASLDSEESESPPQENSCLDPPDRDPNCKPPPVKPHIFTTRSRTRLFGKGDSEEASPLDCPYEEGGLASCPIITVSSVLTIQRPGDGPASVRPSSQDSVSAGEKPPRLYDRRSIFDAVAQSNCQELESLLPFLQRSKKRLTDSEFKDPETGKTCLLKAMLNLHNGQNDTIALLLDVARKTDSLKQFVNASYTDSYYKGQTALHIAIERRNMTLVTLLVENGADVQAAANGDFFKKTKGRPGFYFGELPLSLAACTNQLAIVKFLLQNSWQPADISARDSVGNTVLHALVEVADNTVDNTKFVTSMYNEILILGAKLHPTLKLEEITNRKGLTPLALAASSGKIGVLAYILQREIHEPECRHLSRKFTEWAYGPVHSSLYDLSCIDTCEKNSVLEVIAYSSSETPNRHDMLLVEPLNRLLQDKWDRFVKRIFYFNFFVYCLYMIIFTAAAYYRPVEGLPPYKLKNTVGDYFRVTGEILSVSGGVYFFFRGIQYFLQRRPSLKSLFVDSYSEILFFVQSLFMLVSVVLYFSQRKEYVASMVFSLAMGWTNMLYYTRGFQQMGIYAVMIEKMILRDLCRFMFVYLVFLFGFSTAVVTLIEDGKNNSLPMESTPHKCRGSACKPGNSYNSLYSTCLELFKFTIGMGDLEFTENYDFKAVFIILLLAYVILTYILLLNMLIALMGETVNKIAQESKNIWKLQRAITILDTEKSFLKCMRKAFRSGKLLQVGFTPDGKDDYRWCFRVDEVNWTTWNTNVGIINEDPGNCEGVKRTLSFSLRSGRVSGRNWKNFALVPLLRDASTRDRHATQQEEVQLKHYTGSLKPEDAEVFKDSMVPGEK

Row | Structure (SMILES) | IC50 [nM]
1 | CS(=O)(=O)Nc1c(F)cc(CNC(=O)/C=C/c2ccc(C(F)(F)F)nc2-c2cccc(F)c2)cc1C#N [Example 136, N-(3-Cyano-5-fluoro-4-methanesulfonylamino-benzyl)-3-[2-(3-fluoro-phenyl)-6-trifluoromethyl-pyridin-3-yl]-acrylamide] | 900
2 | CC(C)Sc1nc(C(F)(F)F)ccc1/C=C/C(=O)NCc1ccc(NS(C)(=O)=O)c(F)c1 [Example 178, N-(3-Fluoro-4-methanesulfonylamino-benzyl)-3-(2-isopropylthio-6-trifluoromethyl-pyridin-3-yl)-acrylamide] | 920
3 | C=CS(=O)(=O)Nc1ccc(CNC(=O)/C=C/c2ccc(C(F)(F)F)nc2CCc2ccccc2)cc1 [Example 268, N-(4-Ethenesulfonylamino-benzyl)-3-(2-phenethyl-6-trifluoromethyl-pyridin-3-yl)-acrylamide] | 2900
4 | CCOC(=O)C1CCN(c2nc(C(F)(F)F)ccc2/C=C/C(=O)NCc2cc(F)c(NS(C)(=O)=O)c(C#N)c2)CC1 [Example 111, N-(3-Cyano-5-fluoro-4-methansulfonylamino-benzyl)-3-[2-(4-ethoxycarbonyl-piperid-1-yl)-6-trifluoromethyl-pyridin-3-yl]-acrylamide] | 820
5 | C#Cc1cc(CNC(=O)/C=C/c2ccc(C(F)(F)F)nc2OCCCC)cc(F)c1NS(C)(=O)=O [Example 66, 3-(2-Butoxy-6-trifluoromethyl-pyridin-3-yl)-N-(3-ethynyl-5-fluoro-4-methanesulfonylamino-benzyl)-acrylamide] | 250
6 | O=C(/C=C/c1ccc(C(F)(F)F)nc1CCc1ccccc1)NCc1ccc(NS(=O)(=O)C(F)(F)F)cc1 [Example 279, 3-(2-Phenethyl-6-trifluoromethyl-pyridin-3-yl)-N-(4-trifluoromethanesulfonylamino-benzyl)-acrylamide] | 3900
7 | C#Cc1cc(CNC(=O)/C=C/c2ccc(C(F)(F)F)nc2N2CCN(C)CC2)cc(F)c1NS(C)(=O)=O [Example 64, N-(3-Ethynyl-5-fluoro-4-methanesulfonylamino-benzyl)-3-[2-(4-methyl-piperazin-1-yl)-6-trifluoromethyl-pyridin-3-yl]-acrylamide] | 6500
8 | C#Cc1cc(CNC(=O)/C=C/c2ccc(C(F)(F)F)nc2OC2CCCC2)cc(F)c1NS(C)(=O)=O [Example 92, 3-(2-Cyclopentoxy-6-trifluoromethyl-pyridin-3-yl)-N-(3-ethynyl-5-fluoro-4-methanesulfonylamino-benzyl)-acrylamide] | 520
9 | C#Cc1cc(CNC(=O)/C=C/c2ccc(C(F)(F)F)nc2N2CCC(C(=O)OCC)CC2)cc(F)c1NS(C)(=O)=O [Example 110, AT-(3-Ethynyl-5-fluoro-4-methansulfonylamino-benzyl)-3-[2-(4-ethoxycarbonyl-piperid-1-yl)-6-trifluoromethyl-pyridin-3-yl]-acrylamide] | 580
10 | C#Cc1cc(CNC(=O)/C=C/c2ccc(C(F)(F)F)nc2Cl)cc(F)c1NS(C)(=O)=O [Example 40, 3-(2-Chloro-6-trifluoromethyl-pyridin-3-yl)-N-(3-ethynyl-5-fluoro-4-methanesulfonylamino-benzyl)-acrylamide] | 980
11 | CS(=O)(=O)Nc1ccc(CNC(=O)/C=C/c2ccc(C(F)(F)F)nc2OC2CCOC2)cc1F (centres unmarked) [Example 104, 3-[2-(Tetrahydro-furan-3-yloxy)-6-trifluoromethyl-pyridin-3-yl]-N-(3-fluoro-4-methanesulfonylamino-benzyl)-acrylamide] | 1600
12 | C#Cc1cc(CNC(=O)/C=C/c2ccc(C(F)(F)F)nc2-c2ccc(F)nc2)cc(F)c1NS(C)(=O)=O [Example 135] | 2300
13 | C#Cc1cc(CNC(=O)/C=C/c2ccc(C(F)(F)F)nc2Oc2cccnc2)cc(F)c1NS(C)(=O)=O [Example 134, N-(3-Ethynyl-5-fluoro-4-methanesulfonylamino-benzyl)-3-[2-(pyridin-3-yloxy)-6-trifluoromethyl-pyridin-3-yl]-acrylamide] | 2600

The next lines start with the values.

Row | IC50 [nM] | Structure (SMILES)
14 | 10 | CCNc1nc(C(F)(F)F)ccc1/C=C/C(=O)N[C@H](C)c1ccc(NS(C)(=O)=O)c(F)c1 [Example 246, N-[1-(3-Fluoro-4-methanesulfonylamino-phenyl)-ethyl]-3-(2-ethylamino)-6-trifluoromethyl-pyridin-3-yl-acrylamide]
15 | 65 | C#Cc1cc(CNC(=O)/C=C/c2ccc(C(F)(F)F)nc2CCCCC)cc(F)c1NS(C)(=O)=O [Example 197, N-(3-Ethynyl-5-fluoro-4-methanesulfonylamino-benzyl)-3-(2-pentyl-6-trifluoromethyl)-pyridin-3-yl-acrylamide]
16 | 24 | CC(C)Cc1nc(C(F)(F)F)ccc1/C=C/C(=O)N[C@H](C)c1ccc(NS(C)(=O)=O)c(F)c1 [Example 175, (R)—N-[1-(3-Fluoro-4-methanesulfonylamino-phenyl)-ethyl]-3-(2-isobutyl-6-trifluoromethyl-pyridin-3-yl)-acrylamide]
17 | 200 | CCCCNc1nc(C(F)(F)F)ccc1/C=C/C(=O)N[C@@H](C)c1cc(F)c(NS(C)(=O)=O)c(F)c1 [Example 240, (S)-3-(2-Butylamino-6-trifluoromethyl-pyridin-3-yl)-N-[(1S)-(3,5-difluoro-4-methanesulfonylamino-phenyl)-ethyl]-acrylamide]
18 | 28 | CCCCNc1nc(C(F)(F)F)ccc1/C=C/C(=O)N[C@H](C)c1ccc(NS(C)(=O)=O)c(F)c1 [Example 213, (R)—N-[1-(3-Fluoro-4-methanesulfonylamino-phenyl)-ethyl]-3-(2-butylamino)-6-trifluoromethyl-pyridin-3-yl-acrylamide]
19 | 130 | CCNc1nc(C(F)(F)F)ccc1/C=C/C(=O)NCc1cc(F)c(NS(C)(=O)=O)cc1F [Example 255, N-(2,5-Difluoro-4-methanesulfonylamino-benzyl)-3-(2-ethylamino-6-trifluoromethyl)-pyridin-3-yl-acrylamide]
20 | 120 | Cc1cc(CNC(=O)/C=C/c2ccc(C(F)(F)F)nc2N(C)c2ccccc2)ccc1NS(C)(=O)=O [Example 167, N-(4-methanesulfonylamino-3-methyl-benzyl)-3-[2-(methyl-phenylamino)-6-trifluoromethyl-pyridin-3-yl]-acrylamide]
21 | 80 | Cc1cc(CNC(=O)/C=C/c2ccc(C(F)(F)F)nc2C(C)C)ccc1NS(C)(=O)=O [Example 233, N-(4-methanesulfonylamino-3-methyl-benzyl)-3-(2-isopropyl-6-trifluoromethyl-pyridin-3-yl)-acrylamide]
22 | 41 | CCC(C)c1nc(C(F)(F)F)ccc1/C=C/C(=O)N[C@H](C)c1ccc(NS(C)(=O)=O)c(F)c1 (stereo partly drawn) [Example 243, (R)-3-(2-sec-Butyl-6-trifluoromethyl-pyridin-3-yl)-N-[1-(3-fluoro-4-methanesulfonylamino-phenyl)-ethyl]-acrylamide]
23 | 140 | CCCc1nc(C(F)(F)F)ccc1/C=C/C(=O)NCc1cc(F)c(NS(C)(=O)=O)c(F)c1 [Example 207, N-(3,5-Difluoro-4-methanesulfonylamino-benzyl)-3-(2-propyl-6-trifluoromethyl-pyridin-3-yl)-acrylamide]
24 | 270 | C#Cc1cc(CNC(=O)/C=C/c2ccc(C(F)(F)F)nc2-c2ccsc2)cc(F)c1NS(C)(=O)=O [Example 119, N-(3-Ethynyl-5-fluoro-4-methanesulfonylamino-benzyl)-3-(2-thien-3-yl-6-trifluoromethyl-pyridin-3-yl)-acrylamide]
25 | 25 | CC(C)c1nc(C(F)(F)F)ccc1/C=C/C(=O)N[C@H](C)c1cc(F)c(NS(C)(=O)=O)c(F)c1 [Example 242, (R)—N-[1-(3,5-Difluoro-4-methanesulfonylamino-phenyl)-ethyl]-3-(2-isopropyl-6-trifluoromethyl-pyridin-3-yl)-acrylamide]
26 | 19 | CC(C)Nc1nc(C(F)(F)F)ccc1/C=C/C(=O)N[C@H](C)c1cc(F)c(NS(C)(=O)=O)c(F)c1 [Example 227, (R)—N-[1-(3,5-Difluoro-4-methanesulfonylamino-phenyl)-ethyl]-3-(2-isopropylamino-6-trifluoromethyl-pyridin-3-yl)-acrylamide]
27 | 280 | C=Cc1cc(CNC(=O)/C=C/c2ccc(C(C)(C)C)nc2)cc(F)c1NS(C)(=O)=O [Example 10, 3-(6-tert-Butyl-pyridin-3-yl)-N-(3-fluoro-4-methanesulfonylamino-5-vinyl-benzyl)-acrylamide]
28 | 35 | CCCCNc1nc(C(F)(F)F)ccc1/C=C/C(=O)NCc1cc(F)c(NS(C)(=O)=O)c(F)c1 [Example 202, N-(3,5-Difluoro-4-methanesulfonylamino-benzyl)-3-(2-butylamino-6-trifluoromethyl)-pyridin-3-yl-acrylamide]
29 | 90 | CCCCc1nc(C(F)(F)F)ccc1/C=C/C(=O)NCc1cc(C)c(NS(C)(=O)=O)c(F)c1 [Example 192, 3-(2-Butyl-6-trifluoromethyl-pyridin-3-yl)-N-(3-fluoro-4-methanesulfonylamino-5-methyl-benzyl)-acrylamide]
30 | 400 | Cc1cc(CNC(=O)/C=C/c2ccc(C(F)(F)F)nc2-c2cccc(F)c2)ccc1NS(C)(=O)=O [Example 182, 3-[2-(3-Fluoro-phenyl)-6-trifluoromethyl-pyridin-3-yl]-N-(4-methanesulfonylamino-3-methyl-benzyl)-acrylamide]
31 | 130 | CC(C)Nc1nc(C(F)(F)F)ccc1/C=C/C(=O)NCc1cc(F)c(NS(C)(=O)=O)c(F)c1 [Example 217, N-(3,5-Difluoro-4-methanesulfonylamino-benzyl)-3-(2-isopropylamino-6-trifluoromethyl-pyridin-3-yl)-acrylamide]
32 | 180 | CC(C)(C)c1ccc(/C=C/C(=O)NCc2ccc(NS(C)(=O)=O)c(F)c2)c(Br)n1 [Example 36, 3-(2-Bromo-6-tert-butyl-pyridin-3-yl)-N-(3-fluoro-4-methanesulfonylamino-benzyl)-acrylamide]

Source: patent US7858621B2 (Amorepacific Corporation, priority 2006, dated 2010)
